{"source": "patent US20230398153A1", "about": "“A METHOD FOR EFFICIENT MICROGLIA REPLACEMENT” (The Board of Trustees of the Leland Stanford Junior …, priority 2020, published 2023)", "key": {"endogenous microglia": {"system": "endogenous microglia", "assay": "Depletion of endogenous microglia by PLX5622 diet", "format": "in vivo, mouse", "details": "PLX5622 diet for 21 days", "excerpt": "FIG. 8. Circulation-derived myeloid cells adopt a ramified microglia-like morphology upon brain engraftment. (A and B) Flow cytometry gating for analysis of donor chimerism in PB leukocytes (CD45+) (A) and brain myeloid cells (CD45+CD11b+)(B). (C) Representative images of circulation-derived myeloid cells (CDMCs)([…]) and host microglia (Iba-1+GFP−) cells and DAPI in the cortex of recipient mice at the indicated time points. Scale bars:50 μm. (D) Representative images of Iba-1+ cells in the cortex of mice treated with control or PLX5622 diet for 21 days. The right panels in each group are enlarged images of the boxed areas in the left panels. Scale bars: […]. (E) Iba-1+ cell density in the indicated brain regions was analyzed by microscopy (Mean±SEM, n=3/group, 6 brain slices/animal were quantified. ***p<0.001, Student's t-test). […]\nImmunofluorescence microscopy. […] Images were obtained using a Zeiss LSM710 confocal microscope or Zeiss AxioImager motorized widefield fluorescence microscope.\nImage analysis. […] For morphological analyses, Iba1+ cells and GFP+ cells in the indicated brain regions were analyzed. The number of Iba1+ cells, and number of branch points were manually counted using ImageJ. […] The length of processes in Iba-1+ cells was analyzed semi-automatically using NeuronJ plugin. The ratio of cell body to total cell area was analyzed using FracLac plugin as described. […]"}, "[1]": {"system": "myeloid cells of the spinal cord", "assay": "Microglia replacement in the spinal cord after BMT+PLX protocol", "format": "in vivo, mouse", "details": "PLX5622 treated group", "excerpt": "FIG. 21. Efficient microglia replacement in the spinal cord following our BMT+PLX protocol.\nMany CNS diseases affect primarily the spinal cord. To evaluate whether our microglia replacement protocol is truly CNS-wide we characterized the spinal cords following a replacement as described above. Indeed, when using GFP-expressing donor cells we were able to identify a high and robust chimerism of GFP-positive, transplanted cell among the myeloid cells of the spinal cord (FIG. 21),"}}, "data": [{"compound": "COc1ncc(F)cc1CNc1ccc(Cc2c[nH]c3ncc(C)cc23)c(F)n1", "note": "[PLX5622]", "values": [{"measurement": "elimination of endogenous microglia (Iba-1+ cell density)", "setting": "endogenous microglia", "value": "efficient elimination of endogenous microglia throughout the brain"}, {"measurement": "myeloid cells GFP+ in total spinal cord by flow cytometry", "setting": "[1]", "value": 90, "unit": "%"}]}]}
